Data taken from US11634425B2, “Pharmaceutical compounds” (priority 2019, dated 2023).
Where two headings read alike, the source gives them in different places.

Assays:
RSV A2 = experiment: RSV plaque reduction assay; format: cell-based, respiratory syncytial virus (RSV); details: human respiratory syncytial virus, HepG2, Hep-G2 cells, mean of at least two experiments
Method in brief: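 EC50 is the 50% reduction in immunostained plaque count versus virus-control wells, interpolated from variable-slope 4-parameter fits and averaged over at least two runs. Hep-G2 cells were infected with 100 PFU/well RSV A2 premixed with compound, with the inoculum removed after 2 h. Incubation continued at 37 °C for 2 days under a CMC overlay with compound.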

Cell cytotoxicity (CC50) = format: cell-based; details: human; mean of at least two experiments
Method in brief: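 Values are means of ≥2 independent runs, rounded to whole units, from 4-parameter variable-slope curve fits. Toxicity measured in Hep-G2 cells run alongside RSV plaque-reduction assays.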

in vitro [1] = format: in vitro ADME; details: microsomes, pH 7.4, 1 μM compound, 0.5 mg/mL protein, read-out: Liver Microsomal Stability t1/2
Method in brief: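 Pooled liver microsomes (0.5 mg/mL protein) in 0.1 M phosphate pH 7.4 with 1 μM compound and 1 mM NADPH at 37° C., sampled at 0–45 min; minus-NADPH control at 45 min. Acetonitrile quench, LC-MS/MS; t1/2 and CLint from ln peak-area ratio vs time slope.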

in vitro [2] = format: in vitro ADME; details: hepatocytes, 3 μM compound, read-out: Liver Hepatocyte Stability t1/2
Method in brief: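 Test compound at 3 μM (0.25% DMSO) incubated at 37 °C with pooled cryopreserved hepatocytes, 0.5×10^6 viable cells/mL in supplemented Williams E medium, sampled at 0-60 min. Depletion followed by LC-MS/MS; t1/2 and CLint derived from the slope of ln peak area ratio versus time.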

in vivo = format: in vivo; details: male Beagle dog; for Vd / clearance / Cmax / half-life / AUC(0-t): in vivo; for Cmax / C 8 h: IV 0.5 mg/kg / PO 3 or 4 mg/kg study; for AUC(0-t): read-out: PO AUClast
Method: The pharmacokinetics of compounds were studied in vivo in dogs at doses of 0.5 mg/kg (IV) and 4 mg/kg (PO).
Male Beagle dogs were treated with experimental compounds via intravenous administration (n=2; 0.5 mg/kg) or oral administration (n=2; 3 or 4 mg/kg). Compounds were formulated as a solution in 20% dimethylacetamide/80% (2-hydroxypropyl)-β-cyclodextrin (20% w/v) (IV administration) or a solution in 10% dimethylacetamide/90% (2-hydroxypropyl)-β-cyclodextrin (20% w/v) (PO administration). […] Serial blood samples were collected from the jugular vein at 0.03, 0.08, 0.25, 0.5, 1, 2, 4, 6, 8 and 24 h post IV dosing of compound, and at 0.08, 0.25, 0.5, 1, 2, 4, 6, 8 and 24 h post oral dosing of compound, and plasma was prepared by centrifugation and stored immediately at −80° C. Samples were subsequently thawed, prepared for analysis by protein precipitation with acetonitrile, and analysed by tandem LCMS using electrospray ionisation using a matrix-matched calibration curve. PK parameters were calculated from the resulting data.

[3] = IV 0.5 mg/kg, read-out: IV t1/2 (converted)
[4] = PO 3 or 4 mg/kg, read-out: PO t1/2 (converted)

SMILES	EC50 (RSV A2)	CC50 (Cell cytotoxicity (CC50))	half-life at 1 μM (in vitro [1]; dog)	half-life at 1 μM (in vitro [1]; human)	half-life at 1 μM (in vitro [1]; rat)	half-life at 3 μM (in vitro [2]; dog)	half-life at 3 μM (in vitro [2]; human)	half-life at 3 μM (in vitro [2]; rat)	Vd (in vivo; IV 0.5 mg/kg)	clearance (in vivo; IV 0.5 mg/kg)	Cmax (in vivo)	half-life (in vivo; [3])	AUC(0-t) (in vivo; PO 3 or 4 mg/kg)	half-life (in vivo; [4])	C 8 h (in vivo)	F (in vivo; IV 0.5 mg/kg, PO 3 or 4 mg/kg)
O=C(N[C@H]1N=C(c2ccccc2)c2ccccc2NC1=O)c1c(-c2ccccc2F)nn2cccnc12 [Example 2, 2-(2-Fluorophenyl)-N-[(3S)-2-oxo-5-phenyl-1,3-dihydro-1,4-benzodiazepin-3-yl]pyrazolo[1,5-a]pyrimidine-3-carboxamide]	39 nM	> 25000 nM	7.38 h	3.08 h	> 2.33 h	1.12 h	145 h	3.95 h	0.92 L/kg	1.3 mL/min/kg	1920 ng/mL	9.8 h	22300 ng·h/mL	11.1 h	968 ng/mL	55%
Cc1ccc(-c2nn3cccnc3c2C(=O)N[C@H]2N=C(c3ccccc3)c3cccc(F)c3NC2=O)cn1 [Example 50, N-[(3S)-9-fluoro-2-oxo-5-phenyl-1,3-dihydro-1,4-benzodiazepin-3-yl]-2-(6-methylpyridin-3-yl)pyrazolo[1,5-a]pyrimidine-3-carboxamide]	99 nM	> 25000 nM	13.3 h	13.4 h	3.88 h	> 3.1 h	> 3.1 h	96.7 h	1.3 L/kg	1.7 mL/min/kg	1200 ng/mL	12.2 h	13300 ng·h/mL	16.1 h	549 ng/mL	65%
CCc1ccc(-c2nn3cccnc3c2C(=O)N[C@H]2N=C(c3ccccc3)c3cccc(F)c3NC2=O)cn1 [Example 55]	45 nM	> 25000 nM	1.87 h	2.93 h	1.01 h	2.43 h	> 3.1 h	1.43 h	0.47 L/kg	1.5 mL/min/kg	3210 ng/mL	5.4 h	20900 ng·h/mL	6.1 h	720 ng/mL	65%
